From patent publication US9744164B2, “Neuroprotective polyphenol analogs” (Salk Institute for Biological Studies, priority 2011, dated 2017)

Assays:
rat cortical neurons = test: trophic factor withdrawal; assay type: cell-based; settings: serum-containing medium, Baicalein 10-10,000 nM, 2 days
Description: FIG. 5A—trophic factor withdrawal. Primary cortical neurons are prepared from 18-day-old rat embryos, and cultured at low cell density 1×10^6/35 mm dish, in serum containing medium with Baicalein (10-10,000 nM), and viability assayed 2 days later using a live-dead assay. […] These include trophic factor withdrawal (TFW), excitotoxicity, glucose starvation, and most importantly, in a chemical ischemia model. […] (FIG. 5A). Using a published excitotoxicity assay, Baicalein rescues about 35% of the cells (FIG. 5B).

[1] = tested on: embolic strokes in rabbits; settings: RSCEM, as published in the manuscript; cited from earlier work
[2] = tested on: embolic strokes in rabbits; test: rabbit small clot embolic stroke model (RSCEM); assay type: in vivo
Source text: The ability of polyphenol analogs to treat, prevent and/or mitigate one or more symptoms of stroke can also be evaluated in in vivo assays. Such assays are known in the art and find use. One applicable in vivo screening assay is the rabbit clot embolic stroke model, discussed, e.g., in Lapchak, et al., Stroke (2002) 33(9):2279-84 and Lapchak, Exp Neurol. (2007) 205(2):407-13. The rabbit small clot embolic stroke model (RSCEM) and rabbit large clot embolic stroke model (RLCEM) can be used to determine the potential neuroprotective properties and safety profile of test polyphenol analogs after an embolic stroke. Rabbits are embolized by injecting small blood clots (RSCEM) or large blood clots (RLCEM) into the cerebral circulation. Behavioral analysis is conducted 24 hours later, allowing for determination of the effective stroke dose (ES50) or clot amount (milligrams) that produces severe neurological deficits in 50% of rabbits. A drug is considered neuroprotective if it increases the ES50 compared with the vehicle-treated control group.
Either vehicle or bolus injections of chlorogenic acid were administered intravenously over 1 minute starting 5 minutes following embolization using a suspension of small-sized blood clots. In this series of studies, CGA was administered at 50 mg/kg. Behavioral analysis was conducted at 24 hours following treatment, which allowed for the construction of quantal dose-response analysis curves. […] For the superimposed graphs, normal animals are plotted on the y-axis at 0% and abnormal animals are plotted at 100%. […] Moreover, CGA increased the P50 value (the clot dose that produces abnormality in 50% of a treatment group) compared to vehicle control. For a detailed discussion of the methods used to fit the quantal data to a sigmoidal curve, see Zivin and Waud. The pharmacology of chlorogenic acid in the rabbit small clot embolic stroke model (RSCEM) has been published (Lapchak, Exp Neurol. 2007 205(2):407-13). In the manuscript, it is shown that CGA has a therapeutic window of 60 minutes in the RSCEM. FIG. 2 presents the therapeutic window data.
Using the RSCEM assay described above for CGA, the effects of Fisetin (50 mg/kg) on behavioral outcome measured 24 hours following embolization is tested.

[3] = tested on: primary mouse cortical neurons; test: primary cortical cell glutamate excitotoxicity assay; assay type: cell-based; settings: E14 mouse primary cortical neurons, 10 μM glutamate 10 min, Baicalein 0.2-5 μM, MTT 24 hr
Description: FIG. 5B—excitotoxicity assay was done with E14 mouse primary cortical neuron cultures. After 11 days of culture, cells were exposed to 10 μM glutamate for 10 min, followed by the addition of varying concentrations of Baicalein (0.2-5 μM). Cell viability was determined 24 hr later with a standard MTT assay.
Excitotoxicity cell assay: Primary cultures of cortical neurons that die due to excitotoxicity were prepared as described previously. Briefly, BALB/c mouse embryo cortices were minced and treated with 0.1% trypsin for 20 min. After centrifugation, the cells are resuspended in 827 Neurobasal medium (Invitrogen) plus 10% fetal calf serum and are dissociated by repeated pipetting through a 1 mL blue Eppendorf pipette tip. Then the cells are plated at 1×10^5 cells per well in 96-well poly-L-lysine and laminin-coated microtiter plates (Becton Dickinson, Bedford, Mass., USA) in 827 Neurobasal plus 10% fetal calf serum and 20% glial growth-conditioned medium. Two days later the medium is aspirated and replaced by serum-free 827 Neurobasal medium plus 10 μg/mL cytosine arabinoside. The cultures are used without media change 11 days after plating and are essentially free of astrocytes. They are exposed to 10 μM glutamate followed by varying concentrations of the compounds. Cell viability is determined 24 h later using […]. […]

O=c1cc(-c2ccccc2)oc2cc(O)c(O)c(O)c12 [Baicalein, 5,6,7-trihydroxyflavone]
survival of low-density cultured rat cortical neurons (rat cortical neurons): dramatically promotes the survival
therapeutic window [1]: ≥ 60 min
behavior when administered 1 hour following embolization ([2]; 1 hour following embolization): effective at improving behavior
behavior when administered 3 hours following embolization ([2]; 3 hours following embolization): neither improve behavior
cells rescued [3]: about 35%
